Data as given in patent US6479487B1, “6, 9-disubstituted 2-[trans-(4-aminocyclohexyl)amino] purines” (Aventis Pharmaceuticals Inc., priority 1998, dated 2002).
pIC50: −log10 of the molar value. Values joined by “and” are separate entries in the source; they are usually repeats but may differ in a detail not shown here. Equal values may be shown once. Where a name gives a salt, the structure may show the parent alone. Read-outs that look alike come from different tables or passages of the source.

Legend:
cdk2/cyclin E = biological target: T1, cdk2/cyclin E (Homo sapiens, UniProt P24941); assay: Cyclin-Dependent Kinase 2 Assay (cdk2/cyclin E, GST-Rb substrate); type: biochemical; conditions: recombinant cdk2/cyclin E, 10 μM ATP, 30 min at 30° C., several values in a cell = separate determinations, read-out: CDK-2 Inhibition IC50
T1 construct: made in house; host or cells: insect cells (baculovirus co-infection)
Procedure: Substrate: GST-Rb as described above for cdk4/cyclin D1
Assay conditions for cdk2/cyclin E were identical to those for cdk4/cyclin D1 including the substrate. The concentration of recombinant cdk2/cyclin E in the assay was 0.1 μg per 100 μl assay. Incubation was for 30 min at 30° C.

DMS-114 = assay: In vitro tumor cell proliferation, DMS-114; type: cell-based, human; conditions: many values given with an undefined *, read-out: In vitro Tumor Cell Proliferation (IC50, μM) Lung DMS-114
In short: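 Human small cell lung carcinoma DMS-114 cells plated overnight, then drug-treated for 3 days, medium and drug renewed, and incubated 4 more days. Growth read by sulforhodamine B staining after TCA fixation; alternatively by CyQUANT after 3 days' drug exposure and freezing at −80 °C.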

MDA-MB-231 = assay: In vitro tumor cell proliferation, MDA-MB-231; type: cell-based, human; conditions: sulforhodamine B or CyQUANT assay, many values given with an undefined *, read-out: In vitro Tumor Cell Proliferation (IC50, μM) Breast MDA-MB-231
In short: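 Cells plated overnight at 37 °C, then exposed to drug for 3 days, refed with fresh drug and incubated 4 more days. Read-out by sulforhodamine B staining after TCA fixation; alternatively, CyQUANT after 3-day drug exposure and freezing at −80 °C.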

MDA-MB-435 = assay: In vitro tumor cell proliferation, MDA-MB-435; type: cell-based; conditions: values given with an undefined *, read-out: In vitro Tumor Cell Proliferation (IC50, μM) Breast MDA-MB-435
In short: (§1)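 Cells seeded overnight at 37° C, then exposed to drug diluted in medium; at 3 days medium and drug replenished for another 4 days. Growth read by sulforhodamine B staining after TCA fixation; alternatively by CyQUANT, with plates frozen at −80° C after 3 days of drug.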

A549 = assay: In vitro tumor cell proliferation, A549; type: cell-based, human; conditions: many values given with an undefined *, read-out: In vitro Tumor Cell Proliferation (IC50, μM) Lung A549
In short: as §1

HT-29 = assay: In vitro tumor cell proliferation, HT-29; type: cell-based, human; conditions: many values given with an undefined *, read-out: In vitro Tumor Cell Proliferation (IC50, μM) Colon HT-29
In short: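 HT-29 cells seeded overnight at 37° C, then exposed to drug for 3 days, refed with fresh drug-containing medium for 4 more days. Proliferation read by sulforhodamine B staining after TCA fixation; alternatively by CyQUANT after freezing plates at −80° C following 3 days' drug exposure.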

DU145 = assay: In vitro tumor cell proliferation, DU145; type: cell-based, human; conditions: many values given with an undefined *, read-out: In vitro Tumor Cell Proliferation (IC50, μM) Prostate DU145
In short: as §1

cdk4/cyclin D1 = biological target: T2, cdk4/cyclin D1 (Homo sapiens, UniProt P11802); assay: Cyclin-dependent Kinase 4 Assay (cdk4/cyclin D1, GST-Rb substrate); type: biochemical; conditions: cdk4/cyclin D1 insect cell lysate, 10 μM ATP, 30 min at 37° C., several values = separate determinations, read-out: CDK4 Inhibition IC50
T2 construct: made in house; host or cells: Sf9 insect cells (Bac-to-Bac baculovirus, pFastBac)
In short: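 Insect-cell lysate of coexpressed cdk4/cyclin D1 (0.1 μg) acts on GST-Rb (0.5 μg) bound to glutathione-Sepharose, in 50 mM HEPES pH 7.5, 10 mM MgCl2, 1 mM EGTA. Reaction runs 30 min at 37 °C, then is stopped by filtration and TNEN washes. Rb phosphorylation read by scintillation counting; IC50 derived.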

Colo-205 = assay: In vitro tumor cell proliferation, Colo-205; type: cell-based; conditions: values given with an undefined *, read-out: In vitro Tumor Cell Proliferation (IC50, μM) Colon Colo-205
In short: as §1

PC-3 = assay: In vitro tumor cell proliferation, PC-3; type: cell-based, human; conditions: many values given with an undefined *, read-out: In vitro Tumor Cell Proliferation (IC50, μM) Prostate PC-3
In short: as §1

[1] = Homo sapiens, MDA-MB-231, MDA-MB-231
[2] = Homo sapiens, MDA-MB-435, MDA-MB-435
[3] = Homo sapiens, COLO 205, Colo-205

T2 sequence (P11802 whole entry): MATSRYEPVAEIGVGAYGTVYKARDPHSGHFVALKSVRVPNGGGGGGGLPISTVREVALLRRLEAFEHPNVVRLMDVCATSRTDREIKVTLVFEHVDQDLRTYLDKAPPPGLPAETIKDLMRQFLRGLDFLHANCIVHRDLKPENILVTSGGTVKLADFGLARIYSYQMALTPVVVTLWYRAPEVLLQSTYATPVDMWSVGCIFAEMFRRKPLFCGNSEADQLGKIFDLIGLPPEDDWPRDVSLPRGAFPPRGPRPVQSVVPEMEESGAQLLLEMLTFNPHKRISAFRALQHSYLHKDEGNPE
T2 sequence (P24385 whole entry partner): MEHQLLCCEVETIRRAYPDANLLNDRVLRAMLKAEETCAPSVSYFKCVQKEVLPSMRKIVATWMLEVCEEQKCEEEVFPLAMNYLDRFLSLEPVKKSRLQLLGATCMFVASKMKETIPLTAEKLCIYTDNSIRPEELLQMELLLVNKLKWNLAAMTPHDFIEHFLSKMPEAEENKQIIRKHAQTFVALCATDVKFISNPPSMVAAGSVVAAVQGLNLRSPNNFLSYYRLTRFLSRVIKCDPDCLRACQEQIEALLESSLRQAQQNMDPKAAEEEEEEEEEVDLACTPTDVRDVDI

Compound	IC50 (DMS-114; DMS-114, trihydrochloride)	IC50 (MDA-MB-231; MDA-MB-231, trihydrochloride)	IC50 (MDA-MB-435; MDA-MB-435, trihydrochloride)	IC50 (A549; A549, trihydrochloride)	IC50 (HT-29; HT-29, trihydrochloride)	IC50 (DU145; DU145, trihydrochloride)	IC50 (Colo-205; Colo-205, trihydrochloride)	IC50 (PC-3; PC-3, trihydrochloride)	pIC50 (cdk2/cyclin E)	IC50 (DMS-114; Homo sapiens, DMS-114, DMS-114) [µM]	IC50 (MDA-MB-231; [1]) [µM]	IC50 (MDA-MB-435; [2]) [µM]	IC50 (A549; Homo sapiens, A549, A549) [µM]	IC50 (HT-29; Homo sapiens, HT-29, HT-29) [µM]	IC50 (DU145; Homo sapiens, DU-145, DU145) [µM]	pIC50 (cdk4/cyclin D1)	IC50 (Colo-205; [3]) [µM]	IC50 (PC-3; Homo sapiens, PC-3, PC-3) [µM]	further results
N[C@H]1CC[C@H](Nc2nc(NC3CCN(Cc4ccc(C(F)(F)F)cc4C(F)(F)F)CC3)c3ncn(C4CCCC4)c3n2)CC1 [Example 147-aa, 2-[Trans-(4-aminocyclohexyl)amino]-6-[4-[1-(2,4-bis-trifluoromethylbenzyl)]piperidinylamino]-9-cyclopentylpurine trihydrochloride]	2.7 µM and 2.9 µM	2.5 µM and 3.1 µM	5.8 µM and 4.9 µM	4.1 µM and 3.6 µM	2.8 µM and 2.3 µM	4.4 µM and 4.3 µM	4 µM and 2.9 µM	3.8 µM and 4.6 µM	–	–	–	–	–	–	–	–	–	–	pIC50 (cdk2/cyclin E; trihydrochloride): 5.80 and 5.59; pIC50 (cdk4/cyclin D1; trihydrochloride): 5.00 and 5.08
N[C@H]1CC[C@H](Nc2nc(NC3CCN(Cc4ccccc4OC(F)(F)F)CC3)c3ncn(C4CCCC4)c3n2)CC1 [Example 147-ab, 2-[Trans-(4-aminocyclohexyl)amino]-6-[4-[1-(2-trifluoromethoxybenzyl)]piperidinylamino]-9-cyclopentylpurine trihydrochloride]	0.64 µM	0.7 µM	0.91 µM	0.39 µM	0.62 µM	0.6 µM	0.45 µM	–	6.60 and 6.05	0.74	0.62	0.84	0.33	0.73	0.59	5.35 and 5.57	0.43	0.69	–
N[C@H]1CC[C@H](Nc2nc(NCC3CCN(Cc4ccccc4)CC3)c3ncn(C4CCCC4)c3n2)CC1 [Example 147-ac, 2-[Trans-(4-aminocyclohexyl)amino]-6-[4-(1-benzyl)piperidinylmethylamino]-9-cyclopentylpurine trihydrochloride]	1 µM	0.75 µM	1.1 µM	0.62 µM	0.93 µM	0.66 µM	0.66 µM	0.82 µM	6.77 and 6.43 and 6.28 and 6.40	1.4	0.79	0.97	0.47	1	0.71	5.48 and 5.92	0.61	0.78	–
N[C@H]1CC[C@H](Nc2nc(NC3CCN(Cc4cccc(Oc5ccccc5)c4)CC3)c3ncn(C4CCCC4)c3n2)CC1 [Example 147-ad, 2-[Trans-(4-aminocyclohexyl)amino]-6-[4-[1-(3-phenoxybenzyl)]piperidinylamino]-9-cyclopentylpurine trihydrochloride]	0.62 µM	–	1 µM	0.43 µM	0.7 µM	0.62 µM	0.58 µM	0.86 µM	6.55 and 6.72	0.82	0.64	0.87	0.39	0.79	0.54	5.52 and 5.49	0.53	0.48	–

Now from value to compound, other results behind:

IC50 (DMS-114; DMS-114, trihydrochloride)	IC50 (MDA-MB-231; MDA-MB-231, trihydrochloride)	IC50 (MDA-MB-435; MDA-MB-435, trihydrochloride)	IC50 (A549; A549, trihydrochloride)	IC50 (HT-29; HT-29, trihydrochloride)	IC50 (DU145; DU145, trihydrochloride)	IC50 (Colo-205; Colo-205, trihydrochloride)	IC50 (PC-3; PC-3, trihydrochloride)	pIC50 (cdk2/cyclin E)	IC50 (DMS-114; Homo sapiens, DMS-114, DMS-114) [µM]	IC50 (MDA-MB-231; [1]) [µM]	IC50 (MDA-MB-435; [2]) [µM]	IC50 (A549; Homo sapiens, A549, A549) [µM]	IC50 (HT-29; Homo sapiens, HT-29, HT-29) [µM]	IC50 (DU145; Homo sapiens, DU-145, DU145) [µM]	pIC50 (cdk4/cyclin D1)	IC50 (Colo-205; [3]) [µM]	IC50 (PC-3; Homo sapiens, PC-3, PC-3) [µM]	Compound	further results
0.82 µM	0.73 µM	0.95 µM	0.4 µM	0.61 µM	0.61 µM	0.62 µM	0.78 µM	5.92 and 6.04	0.92	0.64	0.99	0.42	0.65	0.46	5.62 and 5.35	0.48	0.63	N[C@H]1CC[C@H](Nc2nc(NC3CCN(Cc4ccccc4C(F)(F)F)CC3)c3ncn(C4CCCC4)c3n2)CC1 [Example 147-b, 2-[Trans-(4-aminocyclohexyl)amino]-6-[4-[1-(2-trifluoromethylbenzyl)]piperidinylamino]-9-cyclopentylpurine trihydrochloride]	–
0.32 µM	0.27 µM	0.34 µM	0.24 µM	0.3 µM	0.3 µM	0.2 µM	0.33 µM	6.25 and 6.57 and 6.35	0.3	0.23	0.33	0.18	0.32	0.21	6.17 and 6.22	0.19	0.22	COc1cc(CN2CCC(Nc3nc(N[C@H]4CC[C@H](N)CC4)nc4c3ncn4C3CCCC3)CC2)cc(OC)c1 [Example 147-c, 2-[Trans-(4-aminocyclohexyl)amino]-6-[4-[1-(3,5-dimethoxybenzyl)]piperidinylamino-9-cyclopentylpurinetrihydrochloride]	–
0.34 µM and 0.36 µM	0.47 µM and 0.42 µM	0.69 µM and 0.94 µM	0.23 µM and 0.25 µM	0.44 µM and 0.34 µM	0.69 µM and 0.58 µM	0.38 µM and 0.52 µM	–	–	–	–	–	–	–	–	4.19	–	–	N[C@H]1CC[C@H](Nc2nc(NC3CCN(Cc4cc(C(F)(F)F)cc(C(F)(F)F)c4)CC3)c3ncn(C4CCCC4)c3n2)CC1 [Example 147-d, 2-[Trans-(4-aminocyclohexyl)amino]-6-[4-[1-[3,5-bis(trifluoromethyl)benzyl]]piperidinylamino]-9-cyclopentylpurine trihydrochloride]	pIC50 (cdk2/cyclin E; trihydrochloride): 6.05 and 6.28 and 6.12; IC50 (PC-3; PC-3): 0.66 µM
0.5 µM	0.3 µM	0.6 µM	0.3 µM	0.3 µM	0.41 µM	0.32 µM	0.35 µM	6.47 and 6.64 and 6.34	0.58	0.58	0.62	0.35	0.59	0.35	5.57 and 5.34	0.34	0.47	N[C@H]1CC[C@H](Nc2nc(NC3CCN(Cc4cccc(F)c4F)CC3)c3ncn(C4CCCC4)c3n2)CC1 [Example 147-e, 2-[Trans-(4-aminocyclohexyl)amino]-6-[4-1-(2,3-difluorobenzyl)]piperidinylamino]-9-cyclopentylpurine trihydrochloride]	–
